Laboratory results as given in patent publication US11234971B2, “Methods of treating cancer comprising administration of a glucocorticoid receptor modulator and a cancer chemotherapy agent” (Corcept Therapeutics Incorporated, priority 2018, dated 2022).

Key:
[1] = tested on: advanced or metastatic solid tumors; assay: Tumor assessments per RECIST 1.1 in study NCT02762981; format: in vivo, human; conditions: of 21 patients with paired samples; relacorilant plus nab-paclitaxel
Experimental: In the following, reference is made to RECIST and RECIST 1.1, which refer to the Response Evaluation Criteria for Solid Tumors. These criteria, first promulgated in 2000, and updated in 2009 (as RECIST 1.1.), are generally accepted, and nearly universally used criteria for clinical trials of therapies for solid tumors. See, e.g., Schwartz et al., Eur J Cancer. July; 62: 132-137 (2016). The study described in this Example was performed and evaluated according to these criteria. Detection of the ovarian cancer marker CA-125 was also used, per Gynecologic Cancer Intergroup (GCIG) criteria, in evaluating the patient samples.
Patients Patients with solid tumors were enrolled in study NCT02762981, a phase 1/2 study of CORT125134 (aka relacorilant) in combination with nab-paclitaxel. The patients were all 18 years of age or older, with advanced or metastatic solid tumors who have disease progression; all patients gave informed consent to participate in this study.
Patients received one or more cycles of treatments as describe schematically in FIGS. 1 and 2. The treatment schedules of each 28-day cycle are shown in those figures. Patients in Segment I of the study received continuous dosing of relacorilant (“CORT125134”); that is, relacorilant was administered to the patients on a daily basis. […]

androgen receptor = androgen receptor (Homo sapiens, UniProt P10275); conditions: cited from earlier work
Sequence of androgen receptor (P10275 whole entry, species assumed): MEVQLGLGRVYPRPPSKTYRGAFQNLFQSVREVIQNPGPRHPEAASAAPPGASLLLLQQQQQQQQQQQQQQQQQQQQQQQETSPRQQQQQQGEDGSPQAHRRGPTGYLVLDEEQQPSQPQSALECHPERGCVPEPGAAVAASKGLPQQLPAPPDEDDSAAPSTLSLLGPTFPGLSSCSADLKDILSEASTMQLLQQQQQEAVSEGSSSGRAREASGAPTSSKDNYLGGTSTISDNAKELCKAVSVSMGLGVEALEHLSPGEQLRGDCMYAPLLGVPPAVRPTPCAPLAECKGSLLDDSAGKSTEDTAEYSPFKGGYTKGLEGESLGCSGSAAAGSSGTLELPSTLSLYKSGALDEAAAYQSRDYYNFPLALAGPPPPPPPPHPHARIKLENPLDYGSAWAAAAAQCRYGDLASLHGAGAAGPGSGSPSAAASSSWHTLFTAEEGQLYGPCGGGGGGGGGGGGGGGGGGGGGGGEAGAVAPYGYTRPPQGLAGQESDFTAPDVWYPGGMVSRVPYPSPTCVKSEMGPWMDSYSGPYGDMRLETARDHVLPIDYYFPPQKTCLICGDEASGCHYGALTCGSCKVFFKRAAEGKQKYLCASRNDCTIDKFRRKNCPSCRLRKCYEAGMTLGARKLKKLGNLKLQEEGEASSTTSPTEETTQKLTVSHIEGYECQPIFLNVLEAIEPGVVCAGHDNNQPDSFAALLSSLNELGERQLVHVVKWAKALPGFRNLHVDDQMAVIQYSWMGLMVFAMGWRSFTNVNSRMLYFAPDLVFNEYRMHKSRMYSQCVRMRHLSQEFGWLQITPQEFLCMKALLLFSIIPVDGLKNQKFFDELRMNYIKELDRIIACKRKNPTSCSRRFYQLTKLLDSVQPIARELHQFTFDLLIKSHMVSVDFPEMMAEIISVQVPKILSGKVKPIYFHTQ

glucocorticoid receptor = biological target: T1, glucocorticoid receptor (Homo sapiens, UniProt P04150); conditions: cited from earlier work
T1 sequence (P04150 1-777): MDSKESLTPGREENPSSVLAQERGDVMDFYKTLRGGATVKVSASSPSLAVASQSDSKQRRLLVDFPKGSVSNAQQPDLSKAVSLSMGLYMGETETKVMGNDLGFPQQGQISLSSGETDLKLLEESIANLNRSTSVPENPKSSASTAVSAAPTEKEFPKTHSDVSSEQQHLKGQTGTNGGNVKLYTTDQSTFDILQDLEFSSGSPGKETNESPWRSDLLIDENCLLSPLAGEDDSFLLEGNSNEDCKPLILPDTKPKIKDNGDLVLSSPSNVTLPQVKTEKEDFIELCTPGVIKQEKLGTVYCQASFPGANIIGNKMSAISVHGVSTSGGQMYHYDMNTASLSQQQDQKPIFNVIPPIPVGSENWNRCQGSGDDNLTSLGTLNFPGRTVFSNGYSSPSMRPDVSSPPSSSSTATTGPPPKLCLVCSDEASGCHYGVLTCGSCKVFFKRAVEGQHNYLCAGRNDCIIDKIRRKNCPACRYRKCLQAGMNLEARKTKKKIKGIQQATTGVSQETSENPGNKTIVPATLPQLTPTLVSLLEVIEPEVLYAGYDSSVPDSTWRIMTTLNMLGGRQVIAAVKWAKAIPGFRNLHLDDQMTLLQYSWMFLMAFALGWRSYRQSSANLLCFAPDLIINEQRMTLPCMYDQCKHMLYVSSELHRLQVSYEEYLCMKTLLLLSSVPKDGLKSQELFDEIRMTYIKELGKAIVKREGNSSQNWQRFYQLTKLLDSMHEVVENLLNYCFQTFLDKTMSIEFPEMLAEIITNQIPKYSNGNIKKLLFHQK

MIA PaCa-2 xenograft = MIA PaCa-2 xenograft tumor growth in immunodeficient mice; format: in vivo
From the text: The present example, Example 3, provides results of administration of the glucocorticoid receptor modulator relacorilant to cancerous cells. […] The MIA PaCa-2 xenograft model uses MIA PaCa-2 cell-line cells (pancreatic tumor cells derived from a pancreatic adenocarcinoma from a patient) engrafted into immunodeficient mice. The ovarian OVCAR-5 cell line is derived from a human epithelial carcinoma of the ovary, and was established from ascitic fluid obtained (prior to cytotoxic treatment) from a patient with progressive ovarian adenocarcinoma.
FIG. 10A. Relacorilant sensitizes the MIA PaCa-2 xenograft to paclitaxel. Tumor volume of PaCa-2 xenograft tumors implanted in immunodeficient mice is shown as a function of time (days) after implantation in the presence of vehicle (filled circles), paclitaxel (7.5 mg/kg; filled squares), relacorilant alone (upwardly pointing triangles), and relacorilant+7.5 mg/kg paclitaxel (downwardly pointing triangles). 7.5 mg/kg paclitaxel was administered three times (at the days indicated by the dashed vertical lines, indicating days 8, 12, and 16 following tumor implantation into the mice).
FIG. 10B. Relacorilant with Paclitaxel Reduces MIA PaCa-2 xenograft Tumor Volume. Initial tumor volume of PaCa-2 xenograft tumors implanted in immunodeficient mice was less than 400 cubic millimeters (mm^3). […] Tumor size progression is thus indicated by lines descending from the top (100%) value. The tumor-bearing mice were treated with vehicle, relacorilant (30 mg/kg every day), paclitaxel (three doses of 7.5 mg/kg paclitaxel, one dose administered on each of the days indicated in FIG. 10A), and the combination relacorilant (30 mg/kg every day) with paclitaxel (7.5 mg/kg doses of paclitaxel each administered on days 8, 12, and 16 post implantation). […] Xenograft tumor growth was slowed by combined relacorilant+paclitaxel as compared to either paclitaxel alone or relacorilant alone. Relacorilant thus enhanced sensitivity to paclitaxel in the pancreatic MIA PaCa-2 xenograft model.

Cn1cc(S(=O)(=O)N2CCC3=Cc4c(cnn4-c4ccc(F)cc4)C[C@]3(C(=O)c3cc(C(F)(F)F)ccn3)C2)cn1 [relacorilant, (R)-(1-(4-fluorophenyl)-6-((1-methyl-1H-pyrazol-4-yl)sulfonyl)-4,4a,5,6,7,8-hexahydro-1H-pyrazolo[3,4-g]isoquinolin-4a-yl)(4-(trifluoromethyl)pyridin-2-yl)methanone]
patients who experienced benefit from therapy (SD, PR or CR) [1]: 11 patients
patients who experienced progressive disease [1]: 10 patients
Ki (androgen receptor): > 10 µM
binding to the glucocorticoid receptor (glucocorticoid receptor): potently binds
time to progression (fraction of tumors whose volume remained below 400 mm^3) (MIA PaCa-2 xenograft; relacorilant (30 mg/kg every day) added to paclitaxel 7.5 mg/kg days 8, 12, 16, compared to paclitaxel alone, p<0.0001): delayed the time to progression
tumor growth (tumor volume over time) (MIA PaCa-2 xenograft; relacorilant added to 7.5 mg/kg paclitaxel (days 8, 12, 16), compared to paclitaxel alone, p<0.0001): delayed tumor growth
time to progression (fraction of tumors whose volume remained below 400 mm^3) (MIA PaCa-2 xenograft; single agent, relacorilant 30 mg/kg every day or paclitaxel 7.5 mg/kg on days 8, 12, 16): nearly superimposed on the vehicle line
